Consider 18 compounds from patent publication US10131679B2, “Substituted dihydropyrrolopyrazole compound” (UBE INDUSTRIES, LTD., priority 2014, dated 2018).

Test [1] has as its system mouse imiquimod-induced psoriasis model. The test is described as follows: Ear thickening suppression test using mouse imiquimod-induced psoriasis model. It is filed as in vivo. The settings on record: topical, 120 h, application of a 0.01% methanol solution for 4 days, thickness measured on day 5, BALB/c mice, read-out: rate of inhibition of increase in right auricle thickness. The procedure:
Ear Thickening Suppression Test Using Mouse Imiquimod-Induced Psoriasis Model
An imiquimod-induced psoriasis model test was carried out by modifying the method of Leslie van der Fits et al. (J. Immunol. 182, 5836 (2009)). BALB/c mice were used (female, supplied by Charles River Laboratories Japan, Inc.) as laboratory animals. On the start day of the test, the thicknesses of the right auricles of the mice were measured with a thickness gauge (model SMD-565J manufactured by TECLOCK Corp.). A test compound solution or only a solvent was applied or orally administered, and after 60 minutes, 5 mg of imiquimod (Beselna Cream 5% manufactured by Mochida Pharmaceutical Co., Ltd.) was applied to the insides of the right auricles. The test compound solution or solvent administration and the imiquimod application were carried out for 4 days, and the thicknesses of the right auricles were measured again on day 5. When increase in the thicknesses of the right auricles of the solvent-administered group on day 5 was defined as 100%, the rate of inhibition of increase (%) at each dose of the test compound was calculated.

Test [2] concerns human large intestine cancer cell line (HCT-116). The test is described as follows: Human large intestine cancer (HCT-116) cell growth inhibition test. The format is cell-based. The settings on record: 72 h, HCT-116, culture for 3 days, sulforhodamine B absorbance. The method in brief: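 HCT-116 cells seeded at 1.0×10^3 cells/well in McCoy's 5a with 10% FBS, then exposed to compound (0.1% DMSO final) for 3 days. Growth measured by sulforhodamine B absorbance; IC50 derived from concentration-inhibition data.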

The next test deals with T1, PAK4 (Homo sapiens, UniProt O96013).
T1 construct: purchased Invitrogen Corp. PV4212
As to the kind of experiment: PAK4 enzyme inhibition test. It is filed as biochemical. The note with it: Ki=IC50/(1+S/Km); 33P bound to MBP, [γ-33P]ATP, 30° C. for 20 minutes; read-out: Ki value of PAK4 inhibitory activity. On the procedure:
PAK4 Enzyme Inhibition Test
The preparation of a buffer solution was performed by mixing a trishydroxyaminomethane buffer solution (Tris buffer solution) (pH 7.5), DTT, Triton X-100, MgCl2, ethylene glycol bis(β-aminoethyl ether)-N,N,N′,N′-tetraacetic acid (EGTA), (3-glycerol phosphate, and sodium orthovanadate(V). A 40 μM [γ-^33P]ATP solution was used by diluting a 10 mM ATP solution and a commercially available [γ-^33P]ATP solution (manufactured by PerkinElmer, Inc., Code No. NEG-302H) with the buffer solution. A PAK4 solution was used by diluting commercially available PAK4 (manufactured by Invitrogen Corp., Catalog No. PV4212) with the buffer solution. A substrate solution was used by diluting MBP with the buffer solution. As for the preparation of a reaction solution, the buffer solution, the 40 μM [γ-^33P]ATP solution, the PAK4 solution, and the substrate solution were mixed at 4° C. to obtain a reaction solution.
PAK4 enzyme reaction was performed by adding 5 μL of a test compound solution prepared with 10% DMSO/90% injectable distilled water, and 45 μL of the reaction solution in a 1.5 mL microtube at 4° C. and reacting in the microtube at 30° C. for 20 minutes in a water bath incubator. After the reaction, a 10% aqueous TCA solution was added to each microtube while cooled to 4° C., and mixed to terminate the reaction. The resultant was left standing at 4° C. for 10 minutes and then centrifuged in a centrifuge, and the supernatant was discarded. Next, a 2% aqueous TCA solution was added, mixed, and then centrifuged in a centrifuge, and the supernatant was discarded. This washing operation was performed twice. After the washing, precipitates were dissolved in a 1 N aqueous NaOH solution, and the radioactivity was measured with a liquid scintillation counter.
The calculation of the inhibitory activity of the test compound against PAK4 was performed as a test compound concentration inhibiting 50% of the amount of ^33P bound to MBP (IC50 value) by using EXSUS (version 8.0.0 or version 8.0.1, manufactured by CAC Exicare Corp.).
The calculation of a Ki value was performed according to the following calculation expression. S means the concentration of ATP contained in the reaction solution, and Km means a Michaelis-Menten constant. Ki=IC50/(1+S/Km)

Molecules are shown by their SMILES. Some results are limits rather than exact numbers.

As a reminder, the IC50 is the point on the concentration scale where inhibition reaches its midpoint. The term Ki denotes a measure of affinity in units of concentration, obtained from inhibition or displacement.

T1 sequence (O96013 whole entry): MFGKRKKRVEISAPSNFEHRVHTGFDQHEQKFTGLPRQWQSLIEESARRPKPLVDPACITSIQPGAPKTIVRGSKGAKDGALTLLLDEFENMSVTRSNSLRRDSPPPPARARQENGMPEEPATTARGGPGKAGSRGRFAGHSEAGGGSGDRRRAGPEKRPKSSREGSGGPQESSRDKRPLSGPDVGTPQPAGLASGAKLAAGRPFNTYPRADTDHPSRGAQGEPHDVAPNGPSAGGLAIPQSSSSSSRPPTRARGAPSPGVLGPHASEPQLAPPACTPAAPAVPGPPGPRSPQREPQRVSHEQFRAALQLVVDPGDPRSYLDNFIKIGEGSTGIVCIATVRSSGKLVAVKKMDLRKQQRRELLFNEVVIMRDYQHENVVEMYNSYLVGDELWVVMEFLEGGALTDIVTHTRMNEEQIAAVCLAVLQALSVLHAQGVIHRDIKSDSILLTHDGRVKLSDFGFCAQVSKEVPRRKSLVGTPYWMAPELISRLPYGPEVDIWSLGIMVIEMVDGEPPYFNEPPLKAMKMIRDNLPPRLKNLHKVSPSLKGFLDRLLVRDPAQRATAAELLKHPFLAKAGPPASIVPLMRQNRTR

`CC(C)(CO)C(NC(=O)N1Cc2c(NC(=O)C3([Si](C)(C)C)CCC3)n[nH]c2C1(C)C)c1ccccc1` (racemic) [IV-354, N-(3-Hydroxy-2,2-dimethyl-1-phenylpropyl)-6,6-dimethyl-3-[1-(trimethylsilyl)cyclobutanecarboxamido]-4,6-dihydropyrrolo[3,4-c]pyrazole-5(1H)-carboxamide]: the inhibition in vivo at 0.01 % in test [1] is no less than 50%. In test [2], the 50% inhibitory concentration (IC50) is no more than 500 nM. Turning to `CC1(C)c2[nH]nc(NC(=O)C(C)(C)[Si](C)(C)C)c2CN1C(=O)N[C@H](CO)c1ccccc1` [II-114, (S)—N-(2-Hydroxy-1-phenylethyl)-6,6-dimethyl-3-[2-methyl-2-(trimethylsilyl)propanamido]-4,6-dihydropyrrolo[3,4-c]pyrazole-5(1H)-carboxamide], the IC50 in test [2] is no more than 500 nM. Also, at PAK4, the Ki was no less than 500 nM.

In test [2], `CC1(C)c2[nH]nc(NC(=O)C3([Si](C)(C)C)CC3)c2CN1C(=O)N[C@H](CO)c1ccccc1` [III-114, (S)—N-(2-Hydroxy-1-phenylethyl)-6,6-dimethyl-3-[1-(trimethylsilyl)cyclopropanecarboxamido]-4,6-dihydropyrrolo[3,4-c]pyrazole-5(1H)-carboxamide] gave an IC50 of no more than 500 nM. For the same compound, the Ki on PAK4 was no less than 500 nM. In the case of `CC1(C)c2[nH]nc(NC(=O)C3([Si](C)(C)C)CCC3)c2CN1C(=O)O[C@H](CO)c1ccccc1` [IV-2, (S)-2-Hydroxy-1-phenylethyl 6,6-dimethyl-3-[1-(trimethylsilyl)cyclobutanecarboxamido]-4,6-dihydropyrrolo[3,4-c]pyrazole-5(1H)-carboxylate], the IC50 in test [2] was no more than 500 nM. Further, the Ki at PAK4 was no less than 500 nM. For `CC[Si](C)(C)C1(C(=O)Nc2n[nH]c3c2CN(C(=O)N[C@H](CO)c2ccccc2)C3(C)C)CCC1` [IV-117, (S)-3-[1-(Ethyldimethylsilyl)cyclobutanecarboxamido]-N-(2-hydroxy-1-phenylethyl)-6,6-dimethyl-4,6-dihydropyrrolo[3,4-c]pyrazole-5(1H)-carboxamide] the same measures were no more than 500 nM and no less than 500 nM. For `CN(C(=O)N1Cc2c(NC(=O)C3([Si](C)(C)C)CCC3)n[nH]c2C1(C)C)[C@H](CO)c1ccccc1` [IV-119, (S)—N-(2-Hydroxy-1-phenylethyl)-N,6,6-trimethyl-3-[1-(trimethylsilyl)cyclobutanecarboxamido]-4,6-dihydropyrrolo[3,4-c]pyrazole-5(1H)-carboxamide] the same measures were no more than 500 nM and no less than 500 nM. `CCOC[C@@H](NC(=O)N1Cc2c(NC(=O)C3([Si](C)(C)C)CCC3)n[nH]c2C1(C)C)c1ccccc1` [IV-139, (S)—N-(2-Ethoxy-1-phenylethyl)-6,6-dimethyl-3-[1-(trimethylsilyl)cyclobutanecarboxamido]-4,6-dihydropyrrolo[3,4-c]pyrazole-5(1H)-carboxamide] came in with an IC50 in test [2] of no more than 500 nM.

`CC(C)(O)[C@@H](NC(=O)N1Cc2c(NC(=O)C3([Si](C)(C)C)CCC3)n[nH]c2C1(C)C)c1ccccc1` [IV-171, (S)—N-(2-Hydroxy-2-methyl-1-phenylpropyl)-6,6-dimethyl-3-[1-(trimethylsilyl)cyclobutanecarboxamido]-4,6-dihydropyrrolo[3,4-c]pyrazole-5(1H)-carboxamide]: in test [2], the half-inhibitory concentration (IC50) was no more than 500 nM. Besides, the Ki on PAK4 was no less than 500 nM.

As for `CC1(C)c2[nH]nc(NC(=O)C3([Si](C)(C)C)CCC3)c2CN1C(=O)N[C@H](CCCO)c1ccccc1` [IV-283, (R)—N-(4-Hydroxy-1-phenylbutyl)-6,6-dimethyl-3-[1-(trimethylsilyl)cyclobutanecarboxamido]-4,6-dihydropyrrolo[3,4-c]pyrazole-5(1H)-carboxamide], the concentration for half-maximal inhibition (IC50) in test [2] was no more than 500 nM. Moreover, the inhibition constant (Ki) on PAK4 was no less than 500 nM. As to `CC1(C)c2[nH]nc(NC(=O)C3([Si](C)(C)C)CCC3)c2CN1C(=O)N[C@H](CCCCO)c1ccccc1` [IV-291, (R)—N-(5-Hydroxy-1-phenylpentyl)-6,6-dimethyl-3-[1-(trimethylsilyl)cyclobutanecarboxamido]-4,6-dihydropyrrolo[3,4-c]pyrazole-5(1H)-carboxamide], the IC50 in test [2] is no more than 500 nM. At PAK4, the Ki is no less than 500 nM.

Take `CC1(C)c2[nH]nc(NC(=O)C3([Si](C)(C)C)CCC3)c2CN1C(=O)NCCO` [IV-438, N-(2-Hydroxyethyl)-6,6-dimethyl-3-[1-(trimethylsilyl)cyclobutanecarboxamido]-4,6-dihydropyrrolo[3,4-c]pyrazole-5(1H)-carboxamide]: in test [2], the IC50 was no more than 500 nM. The Ki at PAK4 is no less than 500 nM. The compound `CC1(C)c2[nH]nc(NC(=O)C3([Si](C)(C)C)CCC3)c2CN1C(=O)NCC(O)c1ccccc1` (stereo not shown) [IV-450, N-(2-Hydroxy-2-phenylethyl)-6,6-dimethyl-3-[1-(trimethylsilyl)cyclobutanecarboxamido]-4,6-dihydropyrrolo[3,4-c]pyrazole-5(1H)-carboxamide] registered an IC50 in test [2] of no more than 500 nM. Besides, the Ki on PAK4 is no less than 500 nM.

As to `C[C@@H](CO)NC(=O)N1Cc2c(NC(=O)C3([Si](C)(C)C)CCC3)n[nH]c2C1(C)C` [IV-455, (S)—N-(1-Hydroxypropan-2-yl)-6,6-dimethyl-3-[1-(trimethylsilyl)cyclobutanecarboxamido]-4,6-dihydropyrrolo[3,4-c]pyrazole-5(1H)-carboxamide], the Ki on PAK4 is no less than 500 nM. `CC(C)[C@@H](CO)NC(=O)N1Cc2c(NC(=O)C3([Si](C)(C)C)CCC3)n[nH]c2C1(C)C` [IV-475, (S)—N-(1-Hydroxy-3-methylbutan-2-yl)-6,6-dimethyl-3-[1-(trimethylsilyl)cyclobutanecarboxamido]-4,6-dihydropyrrolo[3,4-c]pyrazole-5(1H)-carboxamide]: in test [2], the concentration for half-maximal inhibition (IC50) was no more than 500 nM. Besides, the Ki on PAK4 was no less than 500 nM. In turn, `CC1(C)c2[nH]nc(NC(=O)C3([Si](C)(C)C)CCC3)c2CN1C(=O)N[C@H](CO)C1CCCCC1` [IV-495, (S)—N-(1-Cyclohexyl-2-hydroxyethyl)-6,6-dimethyl-3-[1-(trimethylsilyl)cyclobutanecarboxamido]-4,6-dihydropyrrolo[3,4-c]pyrazole-5(1H)-carboxamide] had an IC50 in test [2] of no more than 500 nM. Moreover, the inhibitory constant (Ki) on PAK4 is no less than 500 nM.

In test [2], `CC1(C)c2[nH]nc(NC(=O)C3([Si](C)(C)C)CCC3)c2CN1C(=O)C(CO)c1ccccc1` (stereo not shown) [IV-632, N-[5-(3-Hydroxy-2-phenylpropanoyl)-6,6-dimethyl-1,4,5,6-tetrahydropyrrolo[3,4-c]pyrazol-3-yl]-1-(trimethylsilyl)cyclobutanecarboxamide] came in with an IC50 of no more than 500 nM. The Ki at PAK4 is no less than 500 nM. On to `CC(C)(O)C[C@@H](NC(=O)N1Cc2c(NC(=O)C3([Si](C)(C)C)CCC3)n[nH]c2C1(C)C)c1ccc(F)cc1` [IV-939, (R)—N-[1-(4-Fluorophenyl)-3-hydroxy-3-methylbutyl]-6,6-dimethyl-3-[1-(trimethylsilyl)cyclobutanecarboxamido]-4,6-dihydropyrrolo[3,4-c]pyrazole-5(1H)-carboxamide], for which the inhibition in vivo at 0.01 % in test [1] is no less than 50%. The compound also showed an IC50 in test [2] of no more than 500 nM. `CO[C@@H](C(=O)N1Cc2c(NC(=O)C3([Si](C)(C)C)CCC3)n[nH]c2C1(C)C)c1ccccc1` [IV-1175, (R)—N-[5-(2-Methoxy-2-phenylacetyl)-6,6-dimethyl-1,4,5,6-tetrahydropyrrolo[3,4-c]pyrazol-3-yl]-1-(trimethylsilyl)cyclobutanecarboxamide]: the inhibition in vivo at 0.01 % in test [1] is no less than 50%. In test [2], this compound had an IC50 of no more than 500 nM.
